By GI50 is commonly meant the concentration that inhibits growth by half. Low values mean greater sensitivity of the cells, high ones lower sensitivity of the cells.

Each structure is given as a SMILES string.

From patent US20050239873A1 (priority 1999, published 2005) come the findings set out here.

The test system of data set [1] is TABX2S cells (over-expressing Bcl-xL). In words: cells. From the text: Briefly, a DNA fragment encoding the full-length mouse BCl-xL cDNA was isolated from the plasmid PBS.BCL-xL (Tzung et al., Am. J. Path. 150:1985-1995, 1997, incorporated herein by reference in its entirety) by digestion with the restriction endonuclease EcoRI. This EcoRI fragment was cloned into the EcoRI site of the mammalian expression vector pSFFV (Fuhlbrigge et al., Proc. Nat. Acad. Sci. USA 85:5649-5653, 1988) in both sense and antisense orientations, to form expression plasmids pSFFV.Bcl-xL(sense) or pSFFV.Bcl-xL(antisense), respectively. The tumorigenic murine hepatocyte cell line TAMH was transfected by lipofection (Lipofectamine, Life Technologies, Rockville, Md., according to the manufacturer's recommendations) with the plasmids pSFFV.neo (the control), pSFFV.Bcl-xL(sense) or pSFFV.Bcl-xL(antisense). […] Transfectants were selected for the acquisition of neomycin resistance by growing cells in the presence of 750 μg/ml of G418. Bulk transfectants were cloned by limiting dilution and individual clones were screened by immunoblot analysis to determine the level of BCl-xL protein expression as described below.
Selected transfectants were then tested for whole cell sensitivity to several apoptotic agents. Transfected cells were cultured to reach approximately 80% confluency prior to plating an equal number of cells from selected clones on 12-well tissue culture plates. The transplanted cells were treated with the following apoptotic agents: 5 μM doxorubicin for 48 hours; 5 μM cisplatin for 48 hours; or with 200 U/ml tumor necrosis factor (TNF) plus 1 μg/ml actinomycin D for 18 hours. Cell viability was determined by trypan blue dye exclusion. The percentage of viable cells was calculated by the number of viable cells (treated with a particular apoptogenic agent) divided by the number in the control group (untreated).
TABX2S cells and TABX1A cells were also examined for the effects of various mitochondrial inhibitors. […] Azide was diluted from an aqueous stock solution. […] Controls received an equivalent concentration of diluent. At various time points after drug treatment, cells were trypsinized, and cell viability was determined by trypan blue dye exclusion. The number of viable cells were counted and normalized to control group (i.e., % control=number of viable cells (treated group)/number of viable cells (control group)×100).

Data set [2] is described as follows: Stability in plasma. The data set is classed as in vitro ADME, mouse. Particulars: for stability: 37° C., 60 min. The protocol:
(§1) For analysis of samples, two volumes of cold methanol-acetonitrile (50:50, v/v) were added to portions of plasma, culture medium, or cell extract. The preparations were mixed and then centrifuged to obtain clear supernatants, which were dried at room temperature by compressed air. The residues were dissolved in the mobile phase, and a portion was injected onto the HPLC column.
(§2) The HPLC equipment consisted of a Hewlett Packard 1050 ChemStation with a fluorescence detector (Agilent 100 series). […] The mobile phase was methanol:ammonium acetate buffer (87:13 v/v; 0.2 M; pH 5.8, adjusted with HCl). The flow rate was 1 ml/min. The column elute was monitored fluorometrically at an excitation wavelength of 232 nm and an emission wavelength of 418 nm. The amounts of test compounds present in samples were determined from the peak areas.
(§3) Samples of mouse, rat, dog, and human plasma were incubated at 37° C. with and without addition of NaF (2.5 mg/ml) and EDTA (1 mg/ml). To these preparations, 2-OMe antimycin A1, 2-OMe antimcyin A2, 2-OMe antimycin A3, or 2-OMe antimycin A5, dissolved in methanol, was added to final concentrations of 500 ng/ml. Portions of plasma, taken at selected times after addition of the 2-OMe antimycin analog, were extracted and analyzed.
(§4) Similarly, the stability of 2-OMe antimycin A1, 2-OMe antimycin A2, […] in the plasma from mice and humans was evaluated at −80° C. From these preparations, portions were analyzed immediately; other portions were stored at -80° C. and analyzed after 1, 2, and 4 weeks.

Data set [3] can be described thus: Stability in plasma. The data set is classed as in vitro ADME, rat. The following applies: 37° C., 60 min, presence of NaF/EDTA. The protocol:
as §1, §2, §3

Data set [4] in a line: Stability in plasma. The following applies: 37° C., 60 min; for stability: presence of NaF/EDTA. In kind it is in vitro ADME, dog. The protocol:
as §1, §2, §3

The nature of data set [5]: Stability in plasma. Particulars: for stability: 60 min. The data set is classed as in vitro ADME, human. The protocol:
as §1, §2, §3, §4

For data set [6], the system named is plasma proteins. Kind of data set: Binding to plasma proteins (ultrafiltration). The data set is classed as in vitro ADME, mouse. The following applies: presence of NaF+EDTA, 1000 ng/ml. Here is the method:
(§5) Solutions of 2-OMe antimycin A3 were diluted with plasma (dog or human) containing NaF+EDTA to final concentrations of 1.0 or 0.2 μg/ml. Controls were diluted with water to the same final concentrations. These preparations were incubated at 37° C. for 20 min, at which time portions were taken and placed in the sample reservoirs of Amicon Centrifree® ultrafiltration systems (Millipore Co., Bedford, Mass.). At 37° C., the filter systems were centrifuged until the reservoirs were dry. From each filtrate, portions were taken for analysis by HPLC. The amounts present were designated as “free drug” (F). The concentrations of the unfiltered solutions were also determined by triplicate analyses. This amount represented the “total drug” concentration (T). The percentage of 2-OMe antimycin A3 bound to plasma proteins was calculated by the following formula: % bound=((T−F)/T)×100

Data set [7] relates to plasma proteins. In words: Binding to plasma proteins (ultrafiltration). In kind it is in vitro ADME, rat. The following applies: presence of NaF+EDTA, 1000 ng/ml.
Data set [8] concerns plasma proteins. In words: Binding to plasma proteins (ultrafiltration). In kind it is in vitro ADME, dog. Particulars: presence of NaF+EDTA, 1000 ng/ml. The protocol: as §5
Similar experiments were performed for 2-OMe antimycin A3 in dog or rat plasma in the absence of NaF/EDTA.

Data set [9] concerns plasma proteins. In words: Binding to plasma proteins (ultrafiltration). In kind it is in vitro ADME, human. Particulars: presence of NaF+EDTA, 1000 ng/ml. Here is the method: as §5
Data set [10] has as its system RPMI-8226 cells. In words: GI50 assay (MTT). The data set is classed as cell-based, human. Here is the method: RPMI 8226 cells were grown in 96 well plates for 24 h prior to addition of 2-methoxy Antimycins. Antimycin stocks in DMSO were serially diluted in RPMI media. Cells were incubated for 48 h with compounds at final compound concentrations ranging from 10^−4 to 10^−8 M. MTT assays were performed in quadruplicate and percent growth inhibitions were calculated as (A570 (control cells)—A570 (treated cells))/A570 (control cells). The GI50 was extrapolated from semi-log plots of the dose response for each compound. […] After 72 h drug exposures, 1 μCi/ml [^3H]-thymidine was added to wells. Cells were incubated for an additional 24 h, and then transferred to GF/C filter plates (Packard) using a plate washer. Filters were dried, added to scintillant, and counted in a TopCount scintillation counter (Packard). Drug response was expressed as the percentage of vehicle-treated controls, and each value shown as the average of three determinations.

Regarding `CC(C)[C@@H]1NC(=O)[C@H](C)OC(=O)[C@@H](C(C)C)NC(=O)[C@@H](C(C)C)OC(=O)[C@H](C(C)C)NC(=O)[C@H](C)OC(=O)[C@@H](C(C)C)NC(=O)[C@@H](C(C)C)OC(=O)[C@H](C(C)C)NC(=O)[C@H](C)OC(=O)[C@@H](C(C)C)NC(=O)[C@@H](C(C)C)OC1=O` [valinomycin], in data set [1] (TABX2S vs TABX1A), the “difference in sensitivity of the two cell lines” value is given as “no significant differences”. For the same compound, in data set [1] (after treatment, TABX2S and TABX1A cells), the “time until cell death apparent” value was “six to eight”.

As for `CC[C@H]1C(=O)O[C@H](C)[C@H](NC(=O)c2cccc(NC=O)c2OC)C(=O)O[C@@H](C)[C@@H]1OC(=O)CC(C)C` [2-OMeA5, 2-OMe antimycin A5], the stability result in [2] (presence of NaF/EDTA) is listed as “notable decreases in concentration”; in data set [3] it was “notable decreases in concentration”; in [4] it was “stable”; in [5] (37° C., presence of NaF/EDTA), “stable”. In addition, the “amounts remaining after 4 weeks” value in data set [2] (-80° C., presence of NaF/EDTA) worked out at 63%; in data set [2] (−80° C., absence of NaF/EDTA), 27%; in data set [5] (-80° C., presence of NaF/EDTA), 92%; in data set [5] (−80° C., absence of NaF/EDTA), 79%. Moreover, the “Protein binding, Mouse” value in data set [6] is 99.7%. Besides, in [7], the “Protein binding, Rat” value was >99.9%. In addition, in data set [8], the “Protein binding, Dog” value was determined as 99.1%. Also, the “Protein binding, Human” value in data set [9] was found to be 99.6%. For the same compound, in data set [10], the “activity relative to 2-OMeA1, 2-OMeA2 and 2-OMeA3 (GI50)” value is “approximately ⅓”.

On to `CCCCCC[C@H]1C(=O)O[C@H](C)[C@H](NC(=O)c2cccc(NC=O)c2OC)C(=O)O[C@@H](C)[C@@H]1OC(=O)CCC` [2-OMeA2, 2-methoxy antimycin A2], for which the stability result is “generally stable” in data set [2] (presence of NaF/EDTA); “generally stable” in data set [3]; “generally stable” in [4]; “generally stable” in [5] (37° C., presence of NaF/EDTA). Further, the “amounts remaining after 4 weeks” value in data set [2] (-80° C., presence of NaF/EDTA) was 77%; in data set [2] (−80° C., absence of NaF/EDTA) it was 63%; in data set [5] (-80° C., presence of NaF/EDTA), 83%; in data set [5] (−80° C., absence of NaF/EDTA), 70%. In data set [4] (absence of NaF/EDTA, 500 ng/ml), this compound registered an added amount remaining of 53%. Moreover, the decrease in concentration in [5] (37° C., presence of NaF/EDTA) is 18%. Further, the “Protein binding, Mouse” value in data set [6] was 99.7%. The “Protein binding, Rat” value in data set [7] is 99.9%. In addition, the “Protein binding, Dog” value in data set [8] worked out at 99.9%. The “Protein binding, Human” value in data set [9] is given as >99.9%. Moreover, the GI50 in data set [10] (48 h, MTT) came out at 12.2 µM.
